From PMC12040169 (PLOS Biology, 2025)

assay: in vitro; conditions: human, hela cells, % viability

Point of comparison: `COC(=O)c1scc(NS(=O)(=O)c2ccc(Cl)cc2Cl)c1C(=O)OC` [CBK026681], viability at 28.5 h, 10 µM 89.4%. Against it:
- CC1CN(C(=O)c2ccccc2)CC(C)N1CCCCc1ccc(F)cc1 (stereo not shown) [CBK025019C] — higher, 97.9%
- CCN(CC)C(=O)N1CCN(CCCC(=O)c2ccc(F)cc2)CC1 [CBK025042C] — lower, 85.4%
- OC1(CCCN2CCOCC2)C2CCCC1CN(Cc1ccccc1)C2 (stereo not shown) [CBK025076C] — higher, 115%
- O=C(NC1CC1)N1CCN(CCCOc2ccc(F)cc2)CC1 [CBK025077C] — higher, 111%
- Cc1cccc(N2CCN(CCCC(c3ccc(F)cc3)c3ccc(F)cc3)CC2)n1 [CBK025113C] — higher, 93.9%
- Fc1ccc(N(CCCN2CCN(c3ncccn3)CC2)c2ccc(F)cc2)cc1 [CBK025127C] — higher, 98.8%
- Cc1ccc(C(=O)C2(O)CCN(CCCC(c3ccc(F)cc3)c3ccc(F)cc3)CC2)cc1 [CBK025221C] — higher, 90.6%
- CCC(=O)OC1(C(=O)c2ccc(F)cc2)CCN(CCCC(c2ccc(F)cc2)c2ccc(F)cc2)CC1 [CBK025227C] — lower, 84.3%
- C#CC1(OC(=O)CC)CCN(CCCC(=O)c2ccc(F)cc2)CC1 [CBK025277C] — higher, 108%
- CNC(=O)c1cccnc1N1CCN(CCCC(c2ccc(F)cc2)c2ccc(F)cc2)CC1 [CBK025309C] — higher, 95%
- NC(=O)c1cccnc1N1CCNCC1 [CBK025310C] — lower, 85.8%
- CC(=O)Nc1cc(C)c(C)cc1NC(C)=O [CBK025366] — higher, 97.5%
- CNc1nc(C(C)(C)C)cs1 [CBK025373] — lower, 88.2%
- Cc1[nH]nc(C(F)(F)F)c1Cl [CBK025387] — higher, 113%
- c1ccc2[nH]c(SCCCCCSc3nc4ccccc4[nH]3)nc2c1 [CBK025418] — higher, 101%
- Nc1nnc(-c2ccc(Cl)cc2)[nH]1 [CBK025436] — higher, 118%
- c1ccc2oc(SCCCCSc3nc4ccccc4o3)nc2c1 [CBK025465] — higher, 97.7%
- COc1ccc([C@@]23CC[C@@H](NC(=S)NC(C)=O)C[C@@H]2N(Cc2ccccc2)CC3)cc1OC [CBK025503T] — higher, 90.2%
- CCCNCC(=O)N1CCN(C(=O)c2ccc(C)cc2)CC1 [CBK025546] — higher, 103%
- CC1(C)CC(CN)(c2ccccc2)CCO1 (stereo not shown) [CBK025559C] — higher, 94.9%
- COc1ccc(C(=O)Nc2nnc[nH]2)cc1 [CBK025569] — higher, 90.8%
- CC(C)(C)NCC(O)COc1ccc(Cl)cc1Cl (stereo not shown) [CBK025597C] — higher, 101%
- c1ccc2c(CSc3ncn[nH]3)cccc2c1 [CBK025610] — higher, 114%
- CN1CCN(c2snnc2CO)CC1 [CBK025626] — higher, 99.5%
- Cc1nc2[nH]c(=O)nc(N)c2nc1C [CBK025658] — lower, 83.3%
- C/C(=N\NC(=O)c1nonc1N)c1ccc(Cl)cc1 [CBK025664] — higher, 107%
- COc1nc2nc(N)nc(N)c2nc1C [CBK025669] — higher, 90.1%
- Cc1ccc(N2C(=O)CSC2c2ccc(Cl)cc2Cl)cc1 (stereo not shown) [CBK025673] — higher, 105%
- CCSc1nnc2c(n1)OC(C)Nc1ccccc1-2 (stereo not shown) [CBK025684] — higher, 102%
- FC(F)c1cc(-c2ccccc2)n2ncnc2n1 [CBK025714] — lower, 87.3%
- CCOC(=O)C(NC(=O)CC)(Nc1cc(C)on1)C(F)(F)F (stereo not shown) [CBK025721] — higher, 117%
- CCOC(=O)N1C(=O)c2ccccc2NC1(C(F)(F)F)C(F)(F)F [CBK025725] — higher, 102%
- Cc1ccc(C(=O)n2c(=S)nc3ccccn32)cc1 [CBK025729] — higher, 91.9%
- Nc1ncn(Cc2ccccc2)c2nc(SCc3ccccc3)nc1-2 [CBK025744] — higher, 106%
- CC1CCC/C(=N\NC(=O)C2C3CCCCC32)C1 (stereo not shown) [CBK025750] — higher, 116%
- COc1ccc(/C=N/Nc2nc(OC)nc(N3CCOCC3)n2)cc1 [CBK025751] — higher, 91.6%
- Cc1cc(C)n2c(SCc3ccccc3)nnc2n1 [CBK025780] — lower, 82%
- COc1ccc(Cl)cc1NS(=O)(=O)N(C)C [CBK025794] — higher, 90.6%
- Cc1cc(C)n(CCOc2nonc2N)n1 [CBK025818] — higher, 117%
- COC(=O)C#CCNc1cc(Cl)ccc1Cl [CBK025852] — lower, 57.6%
- CC(CN(C)C)C(=O)c1ccsc1 (stereo not shown) [CBK025906] — higher, 93%
- CN(C)c1nc(Cl)nc(N(C)C#N)n1 [CBK025922] — lower, 87.7%
- Clc1cc(Cl)c2[nH]c3c(c2c1)CCc1nonc1-3 [CBK025929] — higher, 102%
- Cc1cc(Sc2nc[nH]n2)c2c(Cl)ccc(Cl)c2n1 [CBK025959] — higher, 109%
- CSc1nnc2c(n1)[nH]c1ccccc12 [CBK025967] — higher, 96.6%
- Cc1cc(C)c2c(N)nc(N)nc2n1 [CBK025968] — higher, 105%
- Fc1ccc2c(-c3ccccc3)noc2c1 [CBK025975] — lower, 86.8%
- Nc1ncc(CCCN2CCOCC2)c(N)n1 [CBK025981] — higher, 125%
- CN1C2CCC1CC(OC(=O)c1cccnc1)C2 (stereo not shown) [CBK026000] — higher, 100%
- CCn1c(C)nn(-c2nc3c(Cl)cccc3s2)c1=O [CBK026010] — higher, 100%
- Cc1ccc(Nc2nc(O)ns2)cc1 [CBK026011] — lower, 81%
- Oc1nsnc1-c1ccccc1 [CBK026014] — higher, 95%
- O=C1CSC2(C(=O)Nc3ccccc32)N1c1ccc([N+](=O)[O-])cc1 (stereo not shown) [CBK026035] — higher, 93.5%
- O=C(Nc1nc2ccc(Br)cc2s1)C1CC1 [CBK026046] — higher, 108%
- O=C(Cn1cnnn1)N1CCN(Cc2ccccc2)CC1 [CBK026053] — lower, 85.5%
- CS(=O)(=O)c1nnn(CC#N)n1 [CBK026075] — higher, 90%
- COc1cccc2c(O)cnnc12 [CBK026139] — lower, 87.2%
- COc1ccc(-c2nc3ccccc3s2)cc1O [CBK026156] — higher, 91.6%
- Cc1nnc(SCCOc2ccc(Cl)c(C)c2)s1 [CBK026160] — higher, 89.9%
- NC(=O)c1nnc2ccc(Cl)cc2c1N [CBK026161] — higher, 89.9%
- NC(=O)CSc1nnc(-c2ccncc2)[nH]1 [CBK026179] — higher, 107%
- COc1cc2nnnn2c(-c2ccccc2)n1 [CBK026189] — higher, 102%
- CN1CCN(C2Cc3ccccc3Sc3c(O)cccc32)CC1 (stereo not shown) [CBK026200G] — higher, 98%
- CNCc1ccccc1Sc1cccc(OC)c1 [CBK026207C] — higher, 103%
- CCN(CC)C(=O)CSc1nnc[nH]1 [CBK026212] — higher, 93.3%
- c1ccc(CSc2nnc(-c3ccco3)o2)cc1 [CBK026283] — higher, 106%
- Nc1nnc(CCS(=O)(=O)c2ccc(Br)cc2)s1 [CBK026286] — higher, 109%
- C/C(=N\NC(=O)CSCc1ccccc1Br)c1cccc([N+](=O)[O-])c1 [CBK026344] — higher, 95.9%
- Brc1ccc(NCc2ccccn2)cc1 [CBK026347] — higher, 104%
- Cc1ccsc1CN1CCCCC1CO (stereo not shown) [CBK026348] — higher, 107%
- Nc1nnc(SCc2ccc(Br)cc2)s1 [CBK026356] — higher, 109%
- Brc1ccc(CSc2nc[nH]n2)cc1 [CBK026361] — lower, 85.3%
- COc1ccc(OCCCOc2ccccc2C(C)C)cc1 [CBK026366] — higher, 90.8%
- C(=N\N1CCOCC1)/c1ccc2c(c1)OCO2 [CBK026446] — higher, 108%
- CC(=O)Nc1cc(I)cc(C(=O)O)c1 [CBK026452G] — higher, 104%
- CC(=O)N1c2ccccc2C(C)(c2ccc(Br)cc2)CC1(C)C (stereo not shown) [CBK026461] — higher, 95.8%
- N#CC1CCCc2c1[nH]c1ccc(Br)cc21 (stereo not shown) [CBK026475] — lower, 64.7%
- O=C(O)C1Nc2ccc(Br)cc2C2C=CCC12 (stereo not shown) [CBK026482] — higher, 92.1%
- Cc1cn(S(=O)(=O)c2ccc(Br)cc2)cn1 [CBK026488] — higher, 97.3%
- Fc1ccc(SCCc2ccccn2)cc1 [CBK026491G] — lower, 82.9%
- Cc1cn(S(=O)(=O)c2ccc(Cl)cc2)cn1 [CBK026492] — higher, 113%
- Cc1cc(C)n(-c2ccccc2O)n1 [CBK026493] — higher, 102%
- CSc1nnc(-c2ccc(Br)cc2)o1 [CBK026502] — higher, 91.9%
- CC(C)NC(=O)c1ccccc1Br [CBK026505] — lower, 86.2%
- Nc1nc(N)n(-c2ccccc2)n1 [CBK026515] — higher, 104%
- COc1ccc2nc(C(=O)O)sc2c1 [CBK026523N] — lower, 88.4%
- O=c1[nH]c2cc(Cl)c(Br)nc2[nH]1 [CBK026531] — lower, 76.9%
- O=c1[nH]cnc2ccc(Br)cc12 [CBK026537] — higher, 93.7%
- CC(C)c1ccc(SCCc2ccccn2)cc1 [CBK026575C] — lower, 88.8%
- CCCCN(/C=N/S(=O)(=O)c1ccccc1)CCCC [CBK026576] — higher, 92.2%
- CCN(CC)CCN(C)Cc1ccccc1Br [CBK026593] — higher, 92.8%
- CN(C)CCP(=O)(c1ccccc1)c1ccccc1 [CBK026596] — higher, 109%
- N#CCCNCC1COc2ccccc2O1 (stereo not shown) [CBK026615] — higher, 97.7%
- Cn1c(=O)n(CC(=O)O)c(=O)c2c1nc(Br)n2Cc1ccccc1 [CBK026617] — higher, 94.8%
- O=C(O)c1ccc(-c2c(Cl)cc([N+](=O)[O-])cc2Cl)o1 [CBK026623] — higher, 102%
- CCOC(=O)c1ccc(-c2[nH]cnc2-c2c(C)cc(OC)cc2O)o1 [CBK026647] — higher, 113%
- O=S(=O)(Nc1nnc(C(F)(F)F)s1)c1ccc(F)cc1 [CBK026663] — higher, 91.4%
- COC(=O)c1ccsc1NS(=O)(=O)c1ccccc1 [CBK026667] — lower, 88.7%
- Cc1ccc(S(=O)(=O)Nc2nnc(SCC(=O)Nc3ccc4c(c3)OCO4)s2)cc1 [CBK026675] — higher, 100%
- COC(=O)c1c(NC(=O)c2ccccc2)csc1C [CBK026684] — higher, 90.3%
- Nc1nonc1-c1noc(-c2cccc(Cl)c2)n1 [CBK026691] — higher, 90.2%

same assay, conditions: human, hela cells, % viability, bulk resorufin, single well

In the case of `NC(=O)C[S+]([O-])C(c1ccccc1)c1ccccc1` (stereo not shown) [CBK026184], the viability at 28.5 h, 10 µM was 102%.
